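Growth conditions: 96-well plates. Treatment: test compound, 48 hours, 5 concentrations. Analysis: linear interpolation between bracketing concentrations; unreached endpoints set to highest concentration. TGI denotes the concentration required for complete inhibition of growth.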
Key:
Assay in all cases: inhibition of tumour cell growth, NCI panel, 48 h
[1] = system: CCRF-CEM leukemia
[2] = system: NCI-H522 lung
[3] = system: LXFL 529 NSCLC
[4] = system: SR leukemia
[5] = system: OVCAR-4 ovarian
[6] = system: HCT-15 colon
[7] = system: KM20L2 colon
[8] = system: HOP-18 NSCLC
[9] = system: HCC-2998 colon
[10] = system: HL-60(TB) leukemia
[11] = system: SW-620 colon
[12] = system: HOP-92 NSCLC
[13] = system: SK-MEL-5 melanoma
[14] = system: OVCAR-3 ovarian
[15] = system: OVCAR-8 ovarian
[16] = system: SK-MEL-28 melanoma
[17] = system: SF-539 CNS
[18] = system: A549 NSCLC
[19] = system: DMS 114 small cell lung
[20] = system: HT29 colon
[21] = system: SK-OV-3 ovarian
[22] = system: HCT-116 colon
[23] = system: TK-10 renal
[24] = system: M14 melanoma
[25] = system: SNB-78 CNS
[26] = system: DMS 273 small cell lung
[27] = system: UO-31 renal
[28] = system: SNB-75 CNS
[29] = system: OVCAR-5 ovarian
[30] = system: SK-MEL-2 melanoma
[31] = system: NCI-H460 lung
[32] = system: XF 498 CNS
[33] = system: SF-295 CNS
[34] = system: KM12 colon
[35] = system: EKVX NSCLC
[36] = system: LOX IMVI melanoma
[37] = system: NCI-H226 lung
[38] = system: MALME-3M melanoma
[39] = system: U251 CNS
[40] = system: NCI-H23 lung
[41] = system: ACHN renal
[42] = system: DLD-1 colon
[43] = system: IGROV1 ovarian
[44] = system: K-562 leukemia
[45] = system: A498 renal
[46] = system: UACC-257 melanoma
[47] = system: SNB-19 CNS
[48] = system: RXF 393 renal
[49] = system: HOP-62 NSCLC
[50] = system: 786-0 renal
[51] = system: M19-MEL melanoma
[52] = system: SN12C renal
[53] = system: COLO 205 colon
[54] = system: SF-268 CNS
[55] = system: MOLT-4 leukemia
[56] = system: RXF-631 renal
[57] = system: UACC-62 melanoma
[58] = system: RPMI-8226 leukemia
[59] = system: CAKI-1 renal

Measured: TGI

COC(=O)/C=C/C1C2C3(CCC(C)C12C)OCCS3 (stereo unspecified)
not listed: [56] | [57] | [58] | [59]
> 100 µM: all other assays above

COc1ccc2c(CCNC(C)=O)c(C(C)=O)[nH]c2c1
not listed: [8] | [12] | [13] | [21] | [32] | [38] | [40] | [51]
> 100 µM: all other assays above
